Patent EP0080271A1, “Indomethacin phenyl ester derivatives, their use, and compositions containing them” (priority 1981, dated 1983)
Read-outs that look alike come from different tables or passages of the source.

Columns and labels:
rats [1] = experiment: intestinal ulcers and survival after oral administration for 5 days; type: in vivo; settings: group of 12 rats, oral for 5 days, daily dose 28 µM; for ulceration (%): percentage of surviving animals with ulcers
Description: Each compound listed in Table 5 was administered orally to a group of 12 rats for 5 days, and the number of intestinal ulcers was determined. The degree of ulceration was calculated as a percentage of number of […] surviving animals with respect to the number of surviving animals.

rats [2] = experiment: ulceration activity: ulcer index 5 hours after oral administration; type: in vivo; settings: sacrificed 5 hours after administration
Description: (§1) Secondly, in order to assess ulceration activity, various compounds (listed in Table 2) were administered orally to a group of rats. The animals were sacrificed 5 hours after administration, and the ulcer index was determined. Compounds were also administered orally to a group of rats for 1 week, and the number of intestinal ulcers was determined. The same compounds were administered orally to a group of rats, the ulcer index being determined by observing the stomach 3 hours after administration.

[3] = LD50 by oral administration in mice; settings: mouse, in vivo, mice of the stock ddy
Description: LD50 of this compound, determined by means of oral administration in mice of the stock ddy, was 200 mg/kg.

[4] = tested on: edema induced by carrageenin in rat; experiment: inhibition of edema induced by carrageenin in rat (hind paw volume); type: in vivo; settings: oral 1 hour before carrageenin injection; for inhibition (%): 3 hours after injection; for edema (%): hind paw volume 3 hours after injection
Description: Firstly, in order to assess anti-inflammatory activity, the inhibition of edema induced by carrageenin in rat was studied. Various compounds (listed in Table 1) were administered orally to a group of rats just 1 hour before a carrageenin injection, and the hind paw volume was measured 3 hours after injection.

rats [5] = experiment: ulcer index, stomach observed 3 hours after oral administration; type: in vivo; settings: stomach 3 hours after administration, dose 0.056 mM
Description: as §1

rats [6] = experiment: number of intestinal ulcers after oral administration for 1 week; type: in vivo; settings: oral for 1 week, dose 15 µM
Description: as §1

rats [7] = type: in vivo; settings: group of 10 rats, oral, stomach 24 hours after administration, dose 0.060 mM
Description: Each compound listed in Table 6 was administered orally to a group of 10 rats and the ulcer index was determined by observing the stomach 24 hours after administration.

serum esterase = settings: reported in Ceskoslovenska Farmacie 26 (1977) 6277; cited from earlier work
[8] = versus indomethacin plus salicyl salicylate

COc1ccc2c(c1)c(CC(=O)OCC(=O)O)c(C)n2C(=O)c1ccc(Cl)cc1 [Acemethacin, reference compound]
number of intestinal ulcers (rats [1]): 11.0 | ulceration (%) (rats [1]): 100%

COc1ccc2c(c1)c(CC(=O)Oc1ccccc1C(=O)OCc1ccccc1)c(C)n2C(=O)c1ccc(Cl)cc1 [Example 1, 2-Benzyloxycarbonylphenyll-(p-chlorobenzoyl)-5-methoxy-2-methylindole-3-acetate]
ulcer index (mm) (rats [2]; dose 0.030 mM): 0.1 ± 0.1 mm

CCOC(=O)c1ccccc1OC(=O)Cc1c(C)n(C(=O)c2ccc(Cl)cc2)c2ccc(OC)cc12 [Example 2, 2-Ethoxycarbonylphenyl 1-(p-chlorobenzoyl)-5-methoxy-2-methylindole-3-acetate]
ulcer index (mm) (rats [2]; dose 0.030 mM): 0.2 ± 0.1 mm | LD50 [3]: 200 mg/kg | inhibition (%) ([4]; dose 0.015 mM): 31.8% | inhibition (%) ([4]; dose 0.030 mM): 34.7% | edema (%) ([4]; dose 0.015 mM): 53.3 ± 8.7% | edema (%) ([4]; dose 0.030 mM): 52.9 ± 3.6%

COc1ccc2c(c1)c(CC(=O)Oc1ccccc1C(=O)OC(C)(C)C)c(C)n2C(=O)c1ccc(Cl)cc1 [Example 3, 2-t-Butoxycarbonylphenyl 1-(p-chlorobenzoyl)-5-methoxy-2-methlindole-3-acetate]
ulcer index (mm) (rats [2]; dose 0.030 mM): 0.2 ± 0.1 mm | inhibition (%) ([4]; dose 0.015 mM): 35.8% | inhibition (%) ([4]; dose 0.030 mM): 34.7% | edema (%) ([4]; dose 0.015 mM): 52.0 ± 7.5% | edema (%) ([4]; dose 0.030 mM): 52.9 ± 3.6%

COc1ccc2c(c1)c(CC(=O)Oc1ccccc1C(=O)Oc1ccccc1C(=O)OCc1ccccc1)c(C)n2C(=O)c1ccc(Cl)cc1 [Example 4, 2-(2-Benzyloxycarbonylphenyl)oxycarbonylphenyl 1-(p-chlorobenzoyl)-5-methoxy-2-methylindole-3-acetate]
ulcer index (mm) (rats [2]; dose 0.030 mM): 0.4 ± 0.3 mm

COc1ccc2c(c1)c(CC(=O)Oc1ccccc1C(=O)Oc1ccccc1C(=O)O)c(C)n2C(=O)c1ccc(Cl)cc1 [Example 5, 2-(2-Hydroxycarbonylphenyl)oxycarbonylphenyll-(p-chlorobenzoyl)-5-methoxy-2-methylindole-3-acetate]
Ulcer index (rats [5]): 3.7 ± 1.3 | inhibition (%) (rats [5]; [8]): 86.0% | ulcer index (mm) (rats [2]; dose 0.030 mM): 0.6 ± 0.3 mm | inhibition (%) ([4]; dose 0.015 mM): 42.7% | inhibition (%) ([4]; dose 0.030 mM): 48.7% | edema (%) ([4]; dose 0.015 mM): 46.4 ± 4.8% | edema (%) ([4]; dose 0.030 mM): 41.4 ± 5.3% | number of ulcers (rats [6]): 0.5 ± 2.0 | inhibition (%) (rats [6]; [8]): 98.4% | number of intestinal ulcers (rats [1]): 2.4 ± 0.6 | ulceration (%) (rats [1]): 75%

COc1ccc2c(c1)c(CC(=O)Oc1ccccc1C(=O)O)c(C)n2C(=O)c1ccc(Cl)cc1 [Indomethacin salicylic ester, 2-hydroxycarbonylphenyll-(p-chlorobenzoyl)-5-methoxy-2-methylindole-3-acetate]
inhibition (%) ([4]; dose 0.015 mM): 49.4% | edema (%) ([4]; dose 0.015 mM): 41.0 ± 3.5% | ulcer index (mm) (rats [7]): 7.1 ± 1.6 mm | inhibition (%) (rats [7]; versus indomethacin): 73.2% | hydrolysis by serum esterase (serum esterase): hydrolysis by serum esterase | number of intestinal ulcers (rats [1]): 5.0 ± 0.4 | ulceration (%) (rats [1]): 100%

COc1ccc2c(c1)c(CC(=O)O)c(C)n2C(=O)c1ccc(Cl)cc1 [Indomethacin]
ulcer index (mm) (rats [2]; dose 0.030 mM): 5.9 ± 2.5 mm | ulcer index (mm) (rats [2]; dose 21.5 mg/kg (0.060 mM)): 57.9 ± 6.6 mm | inhibition (%) ([4]; dose 0.015 mM): 32.2% | inhibition (%) ([4]; dose 0.030 mM): 53.5% | edema (%) ([4]; dose 0.015 mM): 54.9 ± 6.5% | edema (%) ([4]; dose 0.030 mM): 37.7 ± 7.2% | ulcer index (mm) (rats [7]): 26.5 ± 6.2 mm | number of survival animals (rats [1]): 0
